According to PMC10765884, “MC180295 is a highly potent and selective CDK9 inhibitor with preclinical in vitro and in vivo efficacy in cancer” (Clinical Epigenetics, 2024):

How the values were obtained:
Assay in all cases: Growth inhibition (cell counting, day 5)
Type in all cases: cell-based
BT474 = conditions: Homo sapiens, BT-474; Breast
Protocol: (§1) The live-cell assay for GFP reactivation in YB5 cells was done as previously described. Cells were treated with a single dose of drug 24 h after seeding at low density, and GFP fluorescence measured in a Millipore Guava flow cytometer (EMD, Millipore) instrument, or by imaging in a Cytation instrument (Agilent). Cancer cell lines (listed in Additional file 1: Fig. S1A) were obtained from ATCC or the Temple/Fox Chase Cellular Repository and cultured in the recommended medium. To measure growth inhibition, cells were seeded in 96-well plates at 40% confluency. Fresh medium was changed the next day and drugs were added directly. Drug-free fresh medium was changed on the fourth day. The cells were collected on day 5 by trypsin, suspended in medium, mixed with trypan blue (Thermo Fisher Scientific) (1:1 ratio), and counted using a LUNA II automated cell counter. Each sample was counted at least three times, and average numbers used for the analysis. Each treatment condition was performed in biological triplicates.

BT549 = conditions: Homo sapiens, BT-549; Breast
Protocol: as §1

CT26.CL25 = conditions: Mus musculus; Colon
Protocol: as §1

CaCO2 = conditions: Homo sapiens, Caco-2; Colon
Protocol: as §1

Cama-1 = conditions: Homo sapiens, Breast
Protocol: as §1

HCCC1937 = conditions: Breast
Protocol: as §1

HCT116 = conditions: Homo sapiens, HCT-116; Colon
Protocol: as §1

HL-60 = conditions: Homo sapiens, Leukemia
Protocol: as §1

HTB126 = conditions: Breast
Protocol: as §1

K562 = conditions: Homo sapiens, Leukemia
Protocol: as §1

KG-1a = conditions: Homo sapiens, Leukemia
Protocol: as §1

KG-1 = conditions: Homo sapiens, Leukemia
Protocol: as §1

KM12 = conditions: Homo sapiens, Colon
Protocol: as §1

LOVO = conditions: Homo sapiens, Colon
Protocol: as §1

LnCap = conditions: Homo sapiens, Prostate
Protocol: as §1

MALME-3M = conditions: Homo sapiens, Melanoma
Protocol: as §1

MCF7 = conditions: Homo sapiens, Breast
Protocol: as §1

MV4-11 = conditions: Homo sapiens, Leukemia
Protocol: as §1

OCI-AML3 = conditions: Homo sapiens, OCI-AML-3; Leukemia
Protocol: as §1

PC3 = conditions: Homo sapiens, PC-3; Prostate
Protocol: as §1

THP-1 = conditions: Homo sapiens, Leukemia
Protocol: as §1

UC16 = conditions: Bladder
Protocol: as §1

WM3912 = conditions: Melanoma
Protocol: as §1

WM88 = conditions: Melanoma
Protocol: as §1

sk-mel28 = conditions: Homo sapiens, SK-MEL-28; Melanoma
Protocol: as §1

Work on `Nc1nc(N[C@H]2C[C@@H]3CC[C@H]2C3)sc1C(=O)c1ccccc1[N+](=O)[O-]` (relative stereo) [MC180295] yielded an IC50 (BT474) of 80 nM, an IC50 (BT549) of 290 nM and an IC50 (CT26.CL25) of 166 nM. The IC50 (CaCO2) was 107 nM, the IC50 (Cama-1) was 624 nM and the IC50 (HCCC1937) was 124 nM. It also gave an IC50 (HCT116) of 92.2 nM, an IC50 (HL-60) of 121 nM and an IC50 (HTB126) of 92 nM. For the same compound, the IC50 (K562) was 502 nM, the IC50 (KG-1a) was 82.3 nM and the IC50 (KG-1) was 148 nM. It also gave an IC50 (KM12) of 102 nM, an IC50 (LOVO) of 199 nM and an IC50 (LnCap) of 109 nM. It also gave an IC50 (MALME-3M) of 350 nM, an IC50 (MCF7) of 177 nM and an IC50 (MV4-11) of 28 nM. It also gave an IC50 (OCI-AML3) of 95.3 nM, an IC50 (PC3) of 213 nM and an IC50 (THP-1) of 43 nM. The IC50 (UC16) was 77 nM, the IC50 (WM3912) was 119 nM and the IC50 (WM88) was 103 nM. For the same compound, the IC50 (sk-mel28) was 422 nM.
